In US6608086B2, “Dihydropyridines and new uses thereof” (Synaptic Pharmaceutical Corporation, priority 1993, dated 2003):
Counter-ions that a name gives are not always drawn. Like-named read-outs stand apart in the source and are kept apart here. One block for each compound: values may come before it.

Assays:
[1] = biological target: T1, α1A Human Adrenergic Receptor (Homo sapiens, UniProt P25100); test: Radioligand binding, [3H]prazosin, cloned human α1A adrenergic receptor
T1 construct: The entire coding region of α1A (1719 bp); expressed in transfected cells
T1 sequence (P25100 1-572): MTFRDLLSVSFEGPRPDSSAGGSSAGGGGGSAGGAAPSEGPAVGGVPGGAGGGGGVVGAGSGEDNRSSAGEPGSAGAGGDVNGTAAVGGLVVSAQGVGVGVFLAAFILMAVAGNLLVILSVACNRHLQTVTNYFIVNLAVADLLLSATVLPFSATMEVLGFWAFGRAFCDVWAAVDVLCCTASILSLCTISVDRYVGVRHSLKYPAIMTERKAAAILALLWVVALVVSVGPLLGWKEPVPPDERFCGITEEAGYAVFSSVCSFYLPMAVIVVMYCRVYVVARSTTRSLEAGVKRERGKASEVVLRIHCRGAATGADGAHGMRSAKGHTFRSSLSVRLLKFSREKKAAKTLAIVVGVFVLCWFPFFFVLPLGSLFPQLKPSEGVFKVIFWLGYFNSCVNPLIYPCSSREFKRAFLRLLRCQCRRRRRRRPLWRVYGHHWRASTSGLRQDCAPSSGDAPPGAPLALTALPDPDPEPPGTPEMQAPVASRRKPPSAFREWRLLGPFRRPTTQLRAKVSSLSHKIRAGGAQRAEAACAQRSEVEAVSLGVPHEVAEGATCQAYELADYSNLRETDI
Method in brief: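 Competition binding used membrane preparations of transfected LM(tk−) cells and the α1 antagonist [3H]prazosin at 0.5 nM, incubated 20 min at 37° C in Tris-HCl buffer, pH 7.5.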

[2] = pKi alpha-1 1a, [3H]prazosin, cloned human α1A receptor, LM(tk−) cell membranes
[3] = pKi alpha-1 1a, [3H]prazosin, cloned human receptor in LM(tk-) cell membranes, SEM and n in lines below
[4] = [3H]prazosin, cloned human α1A receptor, LM(tk−) cell membranes, read-out: pKi alpha-1 1a (converted)

SMILES: CCC1=C(C(N)=O)C(c2ccc([N+](=O)[O-])cc2)C(C(=O)NCCCN2CCC(C#N)(c3ccccc3)CC2)=C(CC)N1 (racemic) [(±)-102, 5-Carboxamido-3-{N-[(4-cyano-4-phenylpiperidin-1-ly)propyl]carboxamido-2,6-diethyl-1,4-dihydro-4-(4-nitrophenyl)pyridine hydrochloride hydrate]
Ki [1, 2]: 3.47 µM

SMILES: CCC1=C(C(N)=O)C(c2ccc([N+](=O)[O-])cc2)C(C(=O)NCCCN2CCC(C#N)(c3ccccc3)CC2)=C(CC)N1 (single isomer, unassigned; (-)) [(−)-102]
Ki [1, 2]: 6.76 µM

SMILES: COC(=O)C1=C(C)NC(C)=C(C(=O)NCCCN2CCC(c3ccccc3)(c3ccccc3)CC2)C1c1ccc(C(F)(F)F)cc1 (stereo not drawn) [Example 1]
Ki ([1]; pKi alpha-1 1a): 2.57 µM
melting point: 228 to 231 °C

SMILES: CCC1=C(C(=O)NCCCN2CCC(c3ccccc3)(c3ccccc3)CC2)C(c2ccc([N+](=O)[O-])cc2)C(C(=O)OCc2ccccc2)=C(C)N1 (stereo not drawn) [Example 4, 5-Benzyloxycarbonyl-2-ethyl-1,4-dihydro-6-methyl-4-(4-nitrophenyl)-3-(N-(3-(4,4-diphenylpiperidin-1-yl)propyl)carboxamido) pyridine, Hydrochloride Salt, Hydrate]
Ki [1, 3]: 0.195 µM

SMILES: COC(=O)C1=C(C)NC(C)=C(C(=O)NCCCN2CCC(c3ccccc3)(c3ccccc3)CC2)C1c1ccncc1 (stereo not drawn) [Example 5, 1,4-Dihydro-5-methoxycarbonyl-2,6-dimethyl-3-(N-(3-(4,4-diphenylpiperidin-1-yl)propyl)carboxamido)-4-(4-pyridyl)pyridine]
Ki ([1]; pKi alpha-1 1a): 1.82 µM
melting point: 224 to 226 °C (dec.)

SMILES: COC(=O)C1=C(C)NC(C)=C(C(=O)NCCCN2CCC(c3ccccc3)(c3ccccc3)CC2)C1C1CCCCC1 (stereo not drawn) [Example 6]
Ki ([1]; pKi alpha-1 1a): 1.12 µM
melting point: 171 to 174 °C

SMILES: COC(=O)C1=C(C)NC(C)=C(C(=O)NCCCN2CCC(c3ccccc3)(c3ccccc3)CC2)C1c1ccc2ccccc2c1 (stereo not drawn) [Example 22]
Ki ([1]; pKi alpha-1 1a): 0.741 µM

SMILES: COC(=O)C1=C(C)NC(C)=C(C(=O)NCCCN2CCC(c3ccccc3)(c3ccccc3)CC2)C1c1ccc([N+](=O)[O-])c(C)c1 (stereo not drawn) [Example 28]
Ki [1, 3]: 0.437 µM

SMILES: CC1=C(C#N)C(c2ccc([N+](=O)[O-])cc2)C(C(=O)NCCCN2CCC(c3ccccc3)(c3ccccc3)CC2)=C(C)N1 (stereo not drawn) [Example 37]
Ki ([1]; pKi alpha-1 1a): 0.692 µM

SMILES: COC(=O)C1=C(C)NC(c2ccoc2)=C(C(=O)NCCCN2CCC(c3ccccc3)(c3ccccc3)CC2)C1c1ccc([N+](=O)[O-])cc1 (stereo not drawn) [Example 43, 2-(Furan-3-yl)-, 4-dihydro-5-methoxycarbonyl-6-methyl-4-(4-nitrophenyl)-3-(N-(3-(4,4-diphenylpiperidin-1-yl)propyl)carboxamidopyridine, hydrochloride salt]
Ki [1, 3]: 0.316 µM

SMILES: COC(=O)C1=C(C)NC(C)=C(C(=O)N(C)CCCN2CCC(c3ccccc3)(c3ccccc3)CC2)C1c1ccc([N+](=O)[O-])cc1 (stereo not drawn) [Example 46, hydrochloride hemihydrate]
Ki ([1]; pKi alpha-1 1a): 0.501 µM

SMILES: COC(=O)C1=C(C)NC(C)=C(C(=O)NCCN2CCC(c3ccccc3)(c3ccccc3)CC2)C1c1ccc([N+](=O)[O-])cc1 (stereo not drawn) [Example 52, 1,4-Dihydro-3-methoxycarbonyl-2,6-dimethyl-4-(4-nitrophenyl)-5-{N-[2-(4,4-diphenylpiperidin-1-yl)ethyl]}carboxamidopyridine hydrochloride hemihydrate]
Ki ([1]; pKi alpha-1 1a): 1.15 µM

SMILES: CC1=C(C(N)=O)C(c2ccc([N+](=O)[O-])cc2)C(C(=O)NCCN2CCC(c3ccccc3)(c3ccccc3)CC2)=C(C)N1 (stereo not drawn) [Example 54, 5-Carboxamide-1,4-dihydro-2,6-dimethyl-4-(4-nitrophenyl)-3-{N-[2-(4,4-diphenylpiperidin-1-yl)ethyl]}carboxamidopyridine hydrochloride hydrate]
Ki [1, 3]: 0.347 µM

SMILES: COC(=O)C1=C(C)NC(c2ccccc2)=C(C(=O)NCCCN2CCC(c3ccccc3)(c3ccccc3)CC2)C1c1ccc([N+](=O)[O-])cc1 (stereo not drawn) [Example 78, 1,4-Dihydro-5-methoxycarbonyl-6-methyl-4-(4-nitro)phenyl-2-phenyl-3-(N-(3-(4,4-diphenylpiperidin-1-yl)propyl))carboxamidopyridine hydrochloride hydrate]
Ki ([1]; pKi alpha-1 1a): 0.178 µM

SMILES: CCOC(=O)C1=C(CC(=O)NCCCN2CCC(c3ccccc3)(c3ccccc3)CC2)NC(C)=C(C(=O)OC)C1c1ccc([N+](=O)[O-])cc1 (stereo not drawn) [Example 89, 3-Ethoxycarbonyl-1,4-dihydro-5-methoxycarbonyl-6-methyl-4-(4-nitro)phenyl-2-(N-(3-(4,4,-diphenylpiperidin-1-yl)propyl)carboxamido)methylpyridine, fumarate salt]
Ki ([1]; pKi alpha-1 1a): 0.347 µM

SMILES: COC(=O)C1=C(C)N(C)C(C)=C(C(=O)OCCCN2CCC(c3ccccc3)(c3ccccc3)CC2)C1c1ccc([N+](=O)[O-])cc1 (stereo not drawn) [Example 92, 1,4-Dihydro-5-methoxycarbonyl-1,2,6-trimethyl-4-(4-nitrophenyl)-3-[3-(4,4-diphenylpiperidin-1-yl)propoxy]carbonylpyridine hydrochloride hydrate]
Ki ([1]; pKi alpha-1 1a): 0.209 µM

SMILES: COc1ccc(C2(c3ccccc3)CCN(CCCNC(=O)C3=C(C)NC(C)=C(C(N)=O)C3c3ccc([N+](=O)[O-])cc3)CC2)cc1 (stereo not drawn) [Example 98, 5-Carboxamido-1,4-dihydro-3-{N-[3-(4-(4-methoxyphenyl)-4-phenylpiperidin-1-yl)propyl]}carboxamido-2,6-dimethyl-4-(4-nitrophenyl)pyridine hydrochloride]
Ki [1, 2]: 1.1 µM

SMILES: CCC1=C(C(N)=O)C(c2ccc([N+](=O)[O-])cc2)C(C(=O)NCCCN2CCC(O)(c3ccccc3)CC2)=C(CC)N1 (stereo not drawn) [Example 100, 5-Carboxamido-2,6-diethyl-1,4-dihydro-3-{N-(3-(4-hydroxy-4-phenylpiperidin-1-yl)propyl]}carboxamido-4-(4-nitrophenyl)pyridine hydrochloride hydrate]
Ki [1, 2]: 4.9 µM

SMILES: CCC1=C(C(N)=O)C(c2ccc([N+](=O)[O-])cc2)C(C(=O)NCCCN2CCC(c3ccc(OC)cc3)(c3ccc(OC)cc3)CC2)=C(CC)N1 (stereo not drawn) [Example 103, 5-Carboxamido-2,6-diethyl-1,4-dihydro-3-{N-[3-(4,4-bis-(4-methoxyphenyl)piperidin-1-yl)propyl]}carboxamido}-4-(4-nitrophenyl)pyridine hydrochloride]
Ki ([1]; pKi alpha-1 1a): 2.51 µM

SMILES: CCC1=C(C(N)=O)C(c2ccc([N+](=O)[O-])cc2)C(C(=O)NCCCN2CCC3(CC2)C(=O)NCN3c2ccccc2)=C(CC)N1 (stereo not drawn) [Example 105, 5-Carboxamido-2,6-diethyl-1,4-dihydro-4-(4-nitrophenyl)-3-{N-[3-(1-phenyl-4-oxo-1,3,8-triazaspiro[4.3]decan-8-yl)propyl]}carboxamidopyridine hydrochloride hydrate]
Ki ([1]; pKi alpha-1 1a): 2.45 µM

SMILES: CCC1=C(C(N)=O)C(c2ccc([N+](=O)[O-])cc2)C(C(=O)NCCCN2CCC(C)(c3ccccc3)CC2)=C(CC)N1 (stereo not drawn) [Example 106, 5-Carboxamido-2,6-diethyl-1,4-dihydro-3-{N-[3-(4-Methyl-4-phenylpiperidin-1-yl)propyl]}carboxamido-4-(4-nitrophenyl)pyridine hydrochloride hydrate]
Ki [1, 2]: 2.4 µM

SMILES: CCC1=C(C(=O)NCCCN2CCC(c3ccccc3)(c3ccccc3)CC2)C(c2ccc(N)cc2)C(C(=O)OC)=C(C)N1 (stereo not drawn) [Example 114, 4-(4-Aminophenyl)-2-ethyl-1,4-dihydro-5-methoxycarbonyl-6-methyl-3-(N-(3-(4,4-diphenylpiperidin-1-yl)propyl)carboxamido)-pyridine]
Ki ([1]; pKi alpha-1 1a): 0.55 µM

SMILES: CCC1=C(C(N)=O)C(c2ccc(S(C)(=O)=O)cc2)C(C(=O)NCCCN2CCC(c3ccccc3)(c3ccccc3)CC2)=C(CC)N1 (stereo not drawn) [Example 116, 5-Carboxamido-2,6-diethyl-1,4-dihydro-4-(4-methanesulfonylphenyl)-3-(N-(3-(4,4-diphenylpiperidin-1-yl)propyl)carboxamido)-pyridine]
Ki [1, 2]: 0.186 µM

Ki [1, 4]: 0.0776 µM
SMILES: CCC1=C(C(N)=O)C(c2ccc([N+](=O)[O-])cc2)C(C(=O)NCCCN2CCN(c3ccccc3OC)CC2)=C(CC)N1 (stereo not drawn) [Example 125, 5-Carboxamido-2,6-diethyl-1,4-dihydro-3-(N-{3-[4-(2-methoxyphenyl)piperazin-1-yl]propyl})carboxamido-4-(4-nitrophenyl)pyridine]

SMILES: CCC1=C(C(=O)OCCC#N)C(c2ccc([N+](=O)[O-])cc2)C(C(=O)NCCCN2CCC(c3ccccc3)(c3ccccc3)CC2)=C(COC)N1 (stereo not drawn) [Example 135]
Ki [1, 4]: 0.501 µM

SMILES: CCC1=C(C(=O)NCCCN2CCC(c3ccccc3)(c3ccccc3)CC2)C(c2ccc([N+](=O)[O-])cc2)C(C(=O)NC)=C(COCCN=[N+]=[N-])N1 (stereo not drawn) [Example 151, 2-((2-Azidoethyl)oxy)methyl-6-ethyl-1,4-dihydro-3-(N-methyl)carboxamido-4-(4-nitro)phenyl-5-(N-(3-(4,4-diphenylpiperidin-1-yl)propyl))carboxamidopyridine]
Ki [1, 2]: 0.631 µM

SMILES: CC1=C(C(=O)NCCCN2CCC(c3ccccc3)(c3ccccc3)CC2)C(c2ccc([N+](=O)[O-])cc2)C(C(=O)OCCC#N)=C(C)N1 (stereo not drawn) [Example 160]
Ki [1, 2]: 0.251 µM
